In paper PMC6151865, “Targeting protein biotinylation enhances tuberculosis chemotherapy” (Science Translational Medicine, 2018):
Where two headings read alike, the source gives them in different places.

Columns and labels:
[1] = biological target: T1, Rv3406 (Mycobacterium tuberculosis, UniProt P9WKZ1); details: substrate; ref Neres et al., ACS Chem Biol 10, 705-714 (2015); cited from earlier work
[2] = tested on: Mtb; format: cell-based, Mycobacterium tuberculosis
[3] = tested on: non-replicating Mtb H37Rv strain; assay: Viability of non-replicating Mtb (PBS starvation); format: cell-based, Mycobacterium tuberculosis; details: starvation in PBS
[4] = Tolerability at ascending intraperitoneal doses; format: in vivo, CD-1 mice
Protocol: Groups of three mice received Bio-AMS (50, 100, 250, or 500 mg/kg) via intraperitoneal injection at 4 ml/kg. They were observed continuously for the first half-hour after injection and then at 24 hours after injection.
Table S5. Tolerability of Bio-AMS at ascending intraperitoneal doses in CD-1 mice.a Bio-AMS 50mg/kg (IP) 4 ml/kg
Mouse # Weight ½ h Observation 24h Observation
Bio-AMS 100mg/kg (IP) 4 ml/kg
Bio-AMS 250mg/kg (IP) 4 ml/kg
Bio-AMS 500mg/kg (IP) 4 ml/kg […]
would be tolerated in mice (with plasma concentrations above the MIC for a minimum of 40-50% of the dosing interval). For this, we conducted a dose escalation tolerab ility study in which groups of three mice received ascending IP doses of Bio-AMS. Only the lowest dose of 50 mg/kg was tolerated up to 24 h post injection. Animal weights remained unchanged during the 24 h period post-injection at all doses. Assuming linear pharmacokinetics, a 50 mg/kg dose would deliver plasma concentrations above the MIC for a very small fraction of the dosing

[5] = tested on: Mtb H37Rv strain; assay: Combination of Bio-AMS with rifampicin, ethambutol, isoniazid in liquid culture; format: cell-based, Mycobacterium tuberculosis; details: for bactericidal activity when used individually: Bio-AMS at 1 µM, rifampicin at 6.5 nM, ethambutol at 12.5 µM; for change of MIC by sublethal dose of Bio-AMS: Bio-AMS 1 µM, 3 days pre-exposure; for Mtb inoculum killed: after 20 days of treatment
[6] = tested on: Mtb; assay: Acid-fast (Kinyoun) staining after Bio-AMS exposure; format: cell-based, Mycobacterium tuberculosis; details: lethal dose (5 µM); after 10 days of exposure
[7] = tested on: mouse macrophages
[8] = tested on: HepG2 cells
[9] = biological target: T1, Rv3406
[10] = in vivo
[11] = tested on: Mtb H37Ra
[12] = in vivo; details: CD-1, mouse
[13] = tested on: Mtb; assay: MIC measurements (carbon sources, biotin in medium)
[14] = tested on: Mtb in mouse macrophages; assay: Intracellular Mtb in mouse bone marrow-derived macrophages; details: treated 24 hours after infection
[15] = 7 days
[16] = in vivo; details: female, NZW, rabbit, lung lesions and plasma, oral
[17] = Rifampicin-doxycycline interaction study; details: plasma; for AUC(0-t): female, CD-1, mouse, in vivo, po, Doxycycline AUC[0-8] Mean (SD); for Doxycycline Cmin Mean (SD): daytime
[18] = tested on: Mtb ∆bioA; format: cell-based, Mycobacterium tuberculosis
[19] = tested on: bioA TetON-1 Mtb strain; set-up: species or system C57BL/6 mice; details: in vivo
[20] = in vivo; details: female, CD-1, mouse, po, 10 mg/kg
[21] = tested on: [H][C@]12CS[C@@H](CCCCC(=O)NS(=O)(=O)NC[C@H]3O[C@@H](n4cnc5c(N)ncnc54)[C@H](O)[C@@H]3O)[C@@]1([H])NC(=O)N2; assay: purified protein, by the assay type; details: pH 7.5; 25.0 °C
[22] = different carbon sources at 0.1%
[23] = rifampicin single dose plus doxycycline in diet (2000 ppm, 7 days)
[24] = rifampicin steady state + doxycycline in diet

CCCCC(CC)COS(=O)(=O)[O-].[Na+] (centres unmarked) [2-EHS, 2-ethylhexyl sulfate]
Km [1]: 8.8 ± 0.5 µM
kcat [1]: 0.32 ± 0.015 s⁻¹

Nc1ncnc2c1ncn2[C@@H]1O[C@H](CNS(=O)(=O)NC(=O)CCCC[C@@H]2SC[C@@H]3NC(=O)N[C@@H]32)[C@@H](O)[C@H]1O [Bio-AMS, 5′-[N-(d-biotinoyl)sulfamoyl]amino-5′-deoxyadenosine]
bactericidal concentration [2]: 5 µM
killing kinetics [2]: kinetics similar to that of isoniazid
viability of the culture [2]: < 25 CFU/ml
Mtb viability, non-replicating [3]: no reduction in Mtb viability
24h Observation ([4]; 50 mg/kg IP, mouse 1): Normal activity
½ h Observation ([4]; 50 mg/kg IP, mouse 1): Active, grooming
24h Observation ([4]; 50 mg/kg IP, mouse 2): Scruffy; some lethargic
½ h Observation ([4]; 50 mg/kg IP, mouse 2): Active, grooming
24h Observation ([4]; 50 mg/kg IP, mouse 3): Normal activity
½ h Observation ([4]; 50 mg/kg IP, mouse 3): Active, grooming
24h Observation ([4]; 100 mg/kg IP, mouse 4): Normal activity; grooming
½ h Observation ([4]; 100 mg/kg IP, mouse 4): Normal activity
24h Observation ([4]; 100 mg/kg IP, mouse 5): Dead
½ h Observation ([4]; 100 mg/kg IP, mouse 5): Normal activity
24h Observation ([4]; 100 mg/kg IP, mouse 6): Euthanized
½ h Observation ([4]; 100 mg/kg IP, mouse 6): Normal activity
24h Observation ([4]; 250 mg/kg IP, mouse 7): Dead
½ h Observation ([4]; 250 mg/kg IP, mouse 7): Heavy breathing
24h Observation ([4]; 250 mg/kg IP, mouse 8): Dead
½ h Observation ([4]; 250 mg/kg IP, mouse 8): Scruffy, heavy breathing
24h Observation ([4]; 250 mg/kg IP, mouse 9): Euthanized
½ h Observation ([4]; 250 mg/kg IP, mouse 9): Normal activity
24h Observation ([4]; 500 mg/kg IP, mouse 10): Near death; scruffy; pale color
½ h Observation ([4]; 500 mg/kg IP, mouse 10): Scruffy, heavy breathing
24h Observation ([4]; 500 mg/kg IP, mouse 11): Euthanized
½ h Observation ([4]; 500 mg/kg IP, mouse 11): Scruffy, heavy breathing
24h Observation ([4]; 500 mg/kg IP, mouse 12): Euthanized
½ h Observation ([4]; 500 mg/kg IP, mouse 12): Scruffy, heavy breathing
animal weights during the 24 h period post-injection ([4]; IP, all doses): unchanged
dose tolerated up to 24 h post injection ([4]; IP, doses of 50, 100, 250, 500 mg/kg tested): 50 mg/kg
tolerability of the dose required for concentrations above the MIC for a substantial fraction of the dosing interval ([4]; mice): not tolerated
bactericidal activity when used individually [5]: none of the compounds were bactericidal
acid-fastness [6]: most bacteria no longer stained as acid-fast
toxicity for mouse macrophages [7]: did not detect toxicity
mitochondrial toxicity [8]: no signs of mitochondrial toxicity
shift in IC50, glucose medium compared to galactose medium ([8]; human): 1.05 fold
KM value relative to 2-EHS (higher) [9]: 48 fold
kcat value relative to 2-EHS (lower) [9]: ~1300 fold
F, bioavailability relative to IV exposure ([10]; CD-1, mouse, 25 mg/kg): 241%
elimination in mice ([10]; mouse): rapidly eliminated
exposure ([10]; mouse, ip): good exposure
exposure ([10]; mouse, po): low
growth of Mtb H37Ra (CFU) [11]: prevented growth
bioavailability ([12]; 25 mg/kg): 2%
AUC(0-t) ([12]; ip, 25 mg/kg): 31.8 µM·h
Cmax ([12]; ip, 25 mg/kg): 61.1 µM
AUC(0-t) ([12]; iv, 5 mg/kg): 2.5 µM·h
Cmax ([12]; iv, 5 mg/kg): 8.72 µM
AUC(0-t) ([12]; po, 25 mg/kg): 0.26 µM·h
Cmax ([12]; po, 25 mg/kg): 0.11 µM
impact of primary carbon source on MIC [13, 22]: little impact
impact of primary carbon source on minimal bactericidal concentration [13, 22]: little impact
increase of MIC by addition of biotin to the growth medium ([13]; with versus without biotin): fourfold
growth of Mtb in infected mouse macrophages [14]: inhibited growth of Mtb in a concentration-dependent manner

C[C@H]1c2cccc(O)c2C(=O)C2=C(O)[C@]3(O)C(=O)C(C(N)=O)=C(O)[C@@H](N(C)C)[C@@H]3[C@@H](O)[C@@H]21 [doxycycline]
Average lesion/plasma ratio (SD) ([15]; animal 1069, 200 ppm in chow, 44 lesions): 3.9 (2.6)
Average lesion/plasma ratio (SD) ([15]; animal 1071, 400 ppm in chow, 19 lesions): 5.4 (2.5)
Kp at 7 days ([16]; 200 ppm): 6.1
Kp at 7 days ([16]; 400 ppm): 3.7
decrease in exposure ([17]; caused by seven daily doses of rifampicin, 8-hour period, P < 0.05): ~ 30%
AUC(0-t) [17, 23]: 4780 ng·h/mL
AUC(0-t) [17, 24]: 3360 ng·h/mL
Doxycycline Cmin Mean (SD) [17, 23]: 0.36 (0.09) g/mL
Doxycycline Cmin Mean (SD) [17, 24]: 0.26 (0.02) g/mL

CC[C@@H](CO)NCCN[C@@H](CC)CO [ethambutol]
change of MIC by sublethal dose of Bio-AMS [5]: reduced the MIC
bactericidal activity when used individually [5]: none of the compounds were bactericidal
Mtb inoculum killed ([5]; ethambutol 12.5 µM combined with Bio-AMS 1 µM): > 99.9%
change of MIC with decreasing concentrations of biotin [18]: unchanged

NNC(=O)c1ccncc1 [isoniazid]
change of MIC by sublethal dose of Bio-AMS [5]: unchanged

CO[C@H]1/C=C/O[C@@]2(C)Oc3c(C)c(O)c4c(O)c(c(/C=N/N5CCN(C)CC5)c(O)c4c3C2=O)NC(=O)/C(C)=C\C=C\[C@H](C)[C@H](O)[C@@H](C)[C@@H](O)[C@@H](C)[C@H](OC(C)=O)[C@@H]1C [rifampicin]
change of MIC by sublethal dose of Bio-AMS [5]: reduced the MIC
bactericidal activity when used individually [5]: none of the compounds were bactericidal
Mtb inoculum killed ([5]; rifampicin 6.5 nM combined with Bio-AMS 1 µM): more than 99.7%
amount accumulated in Mtb ∆bioA compared to wild-type [18]: increased amounts of rifampicin
change of MIC with decreasing concentrations of biotin [18]: decreased the MIC
killing of Mtb bioA TetON-1 in mouse lungs [19]: more than 200 fold
CFU from lungs, BioA expression reduced (no doxycycline) compared to constitutive ([19]; mouse): fewer CFU
AUC(0-t) ([20]; Rifampicin AUC[0-8] Mean (SD)): 30700 ng·h/mL
Cmax ([20]; Rifampicin Cmax Mean (SD)): 5210 ng/mL
effect of co-administration of doxycycline on exposure [17]: not affected
Rifampicin Cmax Mean (SD) [17, 24]: 5.49 (2.14) g/mL

O=C(O)CCC(=O)C(=O)O [α-KG, alpha-ketoglutarate]
Km [1]: 9.4 ± 1.2 µM
kcat [1]: 0.363 ± 0.0167 s⁻¹

Rv3406 (Mycobacterium tuberculosis H37Rv)
Km [21]: 424 ± 136 µM
kcat [21]: 0.00025 ± 1.7e-05 s⁻¹
kcat/Km [21]: 0.583 ± 0.12 M⁻¹ s⁻¹
